According to patent US20260000655A1, “PHARMACEUTICAL COMPOSITION FOR USE IN PREVENTION OR TREATMENT OF LIFESTYLE-RELATED DISEASE” (priority 2022, published 2026):

What was measured:
[1] = tested on: high-fat diet-induced obesity model mice; test: Organ weight in mouse; format: in vivo; conditions: HPH-15 100 mg/kg orally once a day 28 days; compared to olive oil
Procedure: The changes in organ weights when HPH-15 was administered were examined.
High-fat diet-induced obesity model mice were prepared in the same manner as in Example 7. Then, HPH-15 (10 mg/kg or 100 mg/kg, […]) dissolved in olive oil or metformin (300 mg/kg, […]) was orally administered once a day for 28 days. Olive oil alone was administered as a control. After 28 days of administration of each, the liver, muscle, subcutaneous fat, and epididymis of the high-fat diet-induced obesity model mice were excised and weighed.

[2] = tested on: adenosine monophosphate-activated protein kinase (AMPK); test: Activation of AMPK (p-AMPK/AMPK, Western blotting) in adipocyte model 3T3-L1; format: cell-based, mouse; conditions: 3T3-L1 adipocytes; HPH-15 at 1/200th the concentration of metformin (2 mM); 24 hours
Description: The tissues involved in glucose uptake and glucose metabolism are mainly the muscle, the liver, and the fat. Thus, using a cell model of each tissue, the relationship between HPH-15 and activation of adenosine monophosphate-activated protein kinase (AMPK) was examined. Note that AMPK is known as a therapeutic target for diabetes. AMPK acts as an energy sensor, and when it detects a decrease in ATP serving as an intracellular energy source, it suppresses the synthesis of glucose, fats, and proteins and produces ATP. Exercise therapy for diabetes is based on this mechanism. Further, AMPK has been drawing attention as a factor that improves insulin resistance.
As a muscle cell model to be used, rat myoblast cell line L6-GLUT4myc (myoblasts expressing myc-tagged GLUT4) was cultured in a minimal essential medium a-MEM (10% FBS) and differentiated into myotubes. Differentiation into myotubes was performed by culturing L6-GLUT4 cells in a-MEM (10% FBS) and then changing the medium to a-MEM (2% FBS), followed by culturing for 6 days. Human HepG2 cell line was used as a liver cell model. As an adipocyte model to be used, mouse 3T3-L1 preadipocyte cell line was differentiated into adipocytes. Differentiation into adipocytes was performed as follows. […]
Next, bands of AMPK and p-AMPK were quantified using ImageJ to determine a ratio of activated AMPK relative to AMPK (p-AMPK/AMPK).

[3] = Body weight during administration in mouse; format: in vivo; conditions: HPH-15 10 mg/kg or 100 mg/kg orally once a day for 28 days; high-fat diet
Procedure: (§1) Four-week-old […] mice (CLEA Japan, Inc.) were fed a high-fat diet HFD (CLEA Japan, Inc.) for two months to prepare high-fat diet-induced obesity model mice. Then, HPH-15 (10 mg/kg or 100 mg/kg, […]) dissolved in olive oil (Kenei Pharmaceutical Co., Ltd.) or metformin (300 mg/kg, […]) was orally administered once a day for 28 days. Olive oil alone was administered as a control. Body weight, random blood glucose levels, and fasting blood glucose levels were measured every 7 days using a blood glucose meter Glutest Aqua (Sanwa Kagaku Kenkyusho Co., Ltd.). Fasting blood glucose levels were measured after 12-hour fasting. Note that, during the drug administration period, the mice were fed the high-fat diet HFD. The results of random blood glucose levels (mg/dl) are shown in FIG. 7A, and the results of fasting blood glucose levels (mg/dl) are shown in FIG. 7B.

[4] = tested on: high-fat diet-induced obesity model mice; test: Glucose loading test in mouse; format: in vivo; conditions: HPH-15 10 mg/kg or 100 mg/kg orally, 28 days; glucose 0.5 g/kg intraperitoneally; compared to olive oil
Procedure: The effect of HPH-15 on the change in blood glucose levels in the presence of glucose was examined using mice.
High-fat diet-induced obesity model mice were prepared in the same manner as in Example 7. Then, HPH-15 (10 mg/kg or 100 mg/kg, […]) dissolved in olive oil or metformin (300 mg/kg, […]) was orally administered once a day for 28 days. Olive oil alone was administered as a control. After 28 days of administration of each, glucose was intraperitoneally administered (0.5 g/kg) to the high-fat diet-induced obesity model mice, and blood glucose levels (mg/dl) were measured at 0, 15, 30, 60, 90, and 120 minutes after administration using a blood glucose meter Glutest Aqua (Sanwa Kagaku Kenkyusho Co., Ltd.).

[5] = tested on: high-fat diet-induced obesity model mice; test: Blood glucose lowering effect in mouse; format: in vivo; conditions: HPH-15 10 mg/kg or 100 mg/kg orally once a day for 28 days, compared with metformin 300 mg/kg
Procedure: In Example 7, mice were used instead of the cells, which were used up to Example 6, to examine the blood glucose lowering effect of HPH-15.
as §1

Smad 3 = conditions: Non-Patent Literature 3; cited from earlier work

With `CC(C)(C)SCCNC(=S)c1cccc(C(=S)NCCSC(C)(C)C)n1` [HPH-15] the “reduction of subcutaneous fat weight” value [1] was “approximately 50%”, the “AMPK activation (p-AMPK/AMPK) compared to when metformin was used” value [2] was “approximately 170%” and the “changes in body weight during the test period” value [3] was “no significant differences were observed”. For the same molecule, the “glucose metabolism (blood glucose levels, IAUC) after glucose loading” value [4] was “significantly improved”, the “fasting blood glucose levels” value ([5]; 12-hour fasting) was “had the effect of lowering” and the “random blood glucose levels” value [5] was “had the effect of lowering”. For the same molecule, the “phosphorylation of Smad 3 induced by TGF-β” value (Smad 3) was “reduces the phosphorylation of Smad 3 induced by TGF-β”.
